Our source for the MIC values is patent publication EP4316461A1, “A PRESERVATIVE COMPOSITION” (BRAIN Biotech AG, priority 2022, dated 2024).

Values after ≈ are worked out from the molar mass of the structure shown.

Common to all, as to assay type: cell-based
The test system of one test is Aspergillus brasiliensis. Briefly: Antimicrobial activity (MIC). The settings on record: Aspergillus brasiliensis, DSM1988; Strain ID DSM 1988; potato dextrose broth pH 3.8; read-out: Minimal Inhibitory Concentration (MIC).
The test system of a further test is Byssochlamys fulva. Briefly: Antimicrobial activity (MIC). The settings on record: Paecilomyces fulvus, DSM1808; Strain ID DSM 1808; potato dextrose broth pH 3.8; read-out: Minimal Inhibitory Concentration (MIC).
A further test relates to Campylobacter jejuni. Briefly: Antimicrobial activity (MIC). The settings on record: Campylobacter jejuni, DSM4688; Strain ID DSM 4688; potato dextrose broth pH 3.8; read-out: Minimal Inhibitory Concentration (MIC).
The subject of a further test is Candida parapsilosis. In words: Antimicrobial activity (MIC). The settings on record: Lodderomyces parapsilosis, ATCC20384; Strain ID ATCC 20384; potato dextrose broth pH 3.8; read-out: Minimal Inhibitory Concentration (MIC).
A further test deals with Clostridium perfringens. Briefly: microbe, parasite or virus in culture. The settings on record: Clostridium perfringens, DSM756, pH 3.8, read-out: Minimal Inhibitory Concentration (MIC).
In a further test the test system is Clostridium sporogenes. In words: Antimicrobial activity (MIC). The settings on record: Clostridium sporogenes, ATCC19404; Strain ID ATCC 19404; potato dextrose broth pH 3.8; read-out: Minimal Inhibitory Concentration (MIC).
The subject of test [1] is Gluconacetobacter liquefaciens. In words: Antimicrobial activity (MIC). The settings on record: Gluconacetobacter liquefaciens, DSM5603; Strain ID DSM 5603; potato dextrose broth pH 3.8; read-out: Minimal Inhibitory Concentration (MIC).
In test [2] the test system is Lactobacillus plantarum ssp. plantarum. Briefly: Antimicrobial activity (MIC). The settings on record: Lactiplantibacillus plantarum, DSM20174; Strain ID DSM 20174; potato dextrose broth pH 3.8; read-out: Minimal Inhibitory Concentration (MIC).
Test [3] relates to Leuconostoc mesenteroides ssp. mesenteroides. In words: Antimicrobial activity (MIC). The settings on record: Leuconostoc mesenteroides, DSM20343; Strain ID DSM 20343; potato dextrose broth pH 3.8; read-out: Minimal Inhibitory Concentration (MIC).
The next test has as its system Pseudomonas fluorescens. In words: Antimicrobial activity (MIC). The settings on record: Pseudomonas fluorescens; Strain ID DSM50337; potato dextrose broth pH 3.8; read-out: Minimal Inhibitory Concentration (MIC).
The next test relates to Saccharomyces cerevisiae. In words: Antimicrobial activity (MIC). The settings on record: Saccharomyces cerevisiae, DSM2548; Strain ID DSM 2548; potato dextrose broth pH 3.8; read-out: Minimal Inhibitory Concentration (MIC).
The subject of another test is Streptococcus mutans. Briefly: Antimicrobial activity (MIC). The settings on record: Streptococcus mutans, DSM20523; Strain ID DSM 20523; potato dextrose broth pH 3.8; read-out: Minimal Inhibitory Concentration (MIC).
The next test has as its system Yarrowia lipolytica. In words: Antimicrobial activity (MIC). The settings on record: Yarrowia lipolytica, DSM70561; Strain ID DSM 70561; potato dextrose broth pH 3.8; read-out: Minimal Inhibitory Concentration (MIC).

As for `C[C@@H]1O[C@@H](O[C@H]2[C@H](O[C@H]3CC[C@@]4(C)[C@@H](CC[C@]5(C)[C@@H]4CC=C4[C@@H]6CC(C)(C)CC[C@]6(C(=O)O)CC[C@]45C)[C@]3(C)CO)OC[C@H](O)[C@@H]2O)[C@H](O)[C@H](O[C@@H]2OC[C@@H](O)[C@H](O)[C@H]2O)[C@H]1O` [A, Sapindoside B [30994-75-3]], the MIC in the test on Aspergillus brasiliensis was over 80 µg/mL; in the test on Byssochlamys fulva it was over 80 µg/mL; with Campylobacter jejuni, over 80 µg/mL; in the test with Candida parapsilosis, over 80 µg/mL; with Clostridium perfringens it was over 80 µg/mL; in the test with Clostridium sporogenes, 80 µg/mL (≈ 90.6 µM). In addition, the MIC in test [1] was 140 µg/mL (≈ 159 µM); in [2] it was 40 µg/mL (≈ 45.3 µM); in test [3], over 80 µg/mL; in the test with Pseudomonas fluorescens, over 80 µg/mL; in the test with Saccharomyces cerevisiae, over 80 µg/mL; with Streptococcus mutans it was over 80 µg/mL. For the same molecule, the MIC in the test with Yarrowia lipolytica was over 80 µg/mL.
